The values that follow come from patent US10377753B2, “Substituted 4-azaindoles and their use as GluN2B receptor modulators” (Janssen Pharmaceutica NV, priority 2015, dated 2019).

In general, IC50 refers to the concentration that inhibits the measured activity by half. Broadly, the pIC50 is the IC50 on a negative log10 scale, so that one unit is a factor of ten.

cloned human NR1/NR2B ion channels, sequence (Q13224 27-1484, other chains not shown): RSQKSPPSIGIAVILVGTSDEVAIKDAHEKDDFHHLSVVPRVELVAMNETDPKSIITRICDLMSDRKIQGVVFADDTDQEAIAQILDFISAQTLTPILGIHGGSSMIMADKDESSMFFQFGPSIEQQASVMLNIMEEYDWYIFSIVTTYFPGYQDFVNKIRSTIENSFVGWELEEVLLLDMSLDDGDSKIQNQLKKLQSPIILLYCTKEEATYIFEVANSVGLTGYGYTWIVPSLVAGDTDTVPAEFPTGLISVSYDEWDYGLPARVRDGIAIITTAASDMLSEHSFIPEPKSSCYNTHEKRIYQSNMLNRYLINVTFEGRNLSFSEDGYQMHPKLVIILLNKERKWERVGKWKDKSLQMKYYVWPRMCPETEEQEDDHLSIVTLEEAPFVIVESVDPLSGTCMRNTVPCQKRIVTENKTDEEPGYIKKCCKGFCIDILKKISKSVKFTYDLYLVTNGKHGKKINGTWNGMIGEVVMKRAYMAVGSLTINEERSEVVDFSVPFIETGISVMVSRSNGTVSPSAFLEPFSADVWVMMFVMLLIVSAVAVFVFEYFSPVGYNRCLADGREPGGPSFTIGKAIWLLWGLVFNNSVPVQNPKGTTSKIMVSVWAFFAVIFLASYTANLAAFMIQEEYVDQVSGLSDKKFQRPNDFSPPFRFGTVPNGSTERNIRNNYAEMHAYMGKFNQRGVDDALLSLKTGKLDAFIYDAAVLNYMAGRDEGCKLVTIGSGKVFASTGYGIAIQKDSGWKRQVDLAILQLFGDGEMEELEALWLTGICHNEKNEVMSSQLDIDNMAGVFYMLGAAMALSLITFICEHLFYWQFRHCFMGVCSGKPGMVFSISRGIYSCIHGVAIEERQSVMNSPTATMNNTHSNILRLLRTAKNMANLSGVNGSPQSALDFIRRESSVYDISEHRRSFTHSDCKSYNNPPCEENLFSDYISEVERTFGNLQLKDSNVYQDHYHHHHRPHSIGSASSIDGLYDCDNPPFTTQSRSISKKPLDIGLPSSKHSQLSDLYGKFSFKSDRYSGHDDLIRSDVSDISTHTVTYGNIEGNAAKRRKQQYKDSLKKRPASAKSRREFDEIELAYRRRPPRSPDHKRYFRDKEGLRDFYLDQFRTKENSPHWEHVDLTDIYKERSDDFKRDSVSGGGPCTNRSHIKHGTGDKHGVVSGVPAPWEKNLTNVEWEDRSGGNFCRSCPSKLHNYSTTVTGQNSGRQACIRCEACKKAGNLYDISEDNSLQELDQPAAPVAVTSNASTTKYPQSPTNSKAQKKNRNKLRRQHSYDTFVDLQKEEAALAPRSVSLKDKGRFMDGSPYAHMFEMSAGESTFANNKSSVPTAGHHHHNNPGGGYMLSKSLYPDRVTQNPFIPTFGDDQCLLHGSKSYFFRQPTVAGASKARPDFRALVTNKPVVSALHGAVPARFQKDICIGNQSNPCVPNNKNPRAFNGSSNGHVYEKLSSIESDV

In this assay the target is cloned human NR1/NR2B ion channels (Homo sapiens (Human), UniProt Q05586+Q13224). The experiment in a line: HNR2BC: effects of test articles on cloned human NR1/NR2B ion channels expressed in mammalian cells (FLIPR calcium flux). Conditions: cloned human NR1/NR2B ion channels, Table 5. It counts as cell-based. The procedure, abridged:
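In a stable Tet-On-induced cell line expressing human GluN1/GluN2B, Calcium 5-loaded cells were preincubated 5 min with compound, then stimulated 5 min with glutamate at ~EC80 plus 10 μM glycine, in pH 7.4 HEPES buffer. FLIPR calcium fluorescence was normalized to control wells.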
In general terms: A change in cytosolic calcium serves as a functional read-out for many receptors and channels.
On to `O=C(Cn1cc(F)c2ncc(-c3ccc(F)c(F)c3F)cc21)N1CCC1` [Example 477, 1-(Azetidin-1-yl)-2-[3-fluoro-6-(2,3,4-trifluorophenyl)pyrrolo[3,2-b]pyridin-1-yl]ethanone], for which the IC50 is 50.1 nM.

Take `O=C(Cn1cc(F)c2ncc(-c3cccc(Cl)c3)cc21)N1CCC1` [Example 478, 1-(Azetidin-1-yl)-2-[6-(3-chlorophenyl)-3-fluoro-pyrrolo[3,2-b]pyridin-1-yl]ethanone]: the IC50 is 39.8 nM.

Turning to `O=C(Cn1cc(F)c2ncc(-c3cccc(Cl)c3F)cc21)N1CCC1` [Example 479, 1-(Azetidin-1-yl)-2-[6-(3-chloro-2-fluoro-phenyl)-3-fluoro-pyrrolo[3,2-b]pyridin-1-yl]ethanone], the IC50 is 25.1 nM.

`Cc1c(F)ccc(-c2cnc3c(F)cn(CC(=O)N4CCC4)c3c2)c1F` [Example 480, 1-(Azetidin-1-yl)-2-[6-(2,4-difluoro-3-methyl-phenyl)-3-fluoro-pyrrolo[3,2-b]pyridin-1-yl]ethanone]: the IC50 is 39.8 nM.

For the compound `O=C(Cn1cc(F)c2ncc(-c3ccc(F)c(Cl)c3)cc21)N1CCC1` [Example 481, 1-(Azetidin-1-yl)-2-[6-(3-chloro-4-fluoro-phenyl)-3-fluoro-pyrrolo[3,2-b]pyridin-1-yl]ethanone], the IC50 is 25.1 nM.

Turning to `O=C(Cn1cc(F)c2ncc(-c3ccccc3)cc21)N1CC(F)C1` [Example 482, 1-(3-Fluoroazetidin-1-yl)-2-(3-fluoro-6-phenyl-pyrrolo[3,2-b]pyridin-1-yl)ethanone], the concentration for half-maximal inhibition (IC50) is 15.8 nM.

On to `Cc1cccc(-c2cnc3c(F)cn(CC(=O)N4CC(F)C4)c3c2)c1F` [Example 483, 1-(3-Fluoroazetidin-1-yl)-2-[3-fluoro-6-(2-fluoro-3-methyl-phenyl)pyrrolo[3,2-b]pyridin-1-yl]ethanone], for which the IC50 is 63.1 nM.

For the compound `O=C(Cn1cc(F)c2ncc(-c3cccc(C(F)(F)F)c3)cc21)N1CC(F)C1` [Example 484, 1-(3-Fluoroazetidin-1-yl)-2-[3-fluoro-6-[3-(trifluoromethyl)phenyl]pyrrolo[3,2-b]pyridin-1-yl]ethanone], the IC50 is 12.6 nM.

Consider `O=C(Cn1cc(F)c2ncc(-c3cccc(C(F)(F)F)c3F)cc21)N1CC(F)C1` [Example 485, 1-(3-Fluoroazetidin-1-yl)-2-[3-fluoro-6-[2-fluoro-3-(trifluoromethyl)phenyl]pyrrolo[3,2-b]pyridin-1-yl]ethanone], for which the IC50 is 39.8 nM.

For `O=C(Cn1cc(F)c2ncc(-c3ccc(F)c(F)c3F)cc21)N1CC(F)C1` [Example 486, 1-(3-Fluoroazetidin-1-yl)-2-[3-fluoro-6-(2,3,4-trifluorophenyl)pyrrolo[3,2-b]pyridin-1-yl]ethanone], the IC50 is 25.1 nM.

Take `O=C(Cn1cc(F)c2ncc(-c3cc(F)cc(F)c3)cc21)N1CC(F)C1` [Example 487, 2-[6-(3,5-Difluorophenyl)-3-fluoro-pyrrolo[3,2-b]pyridin-1-yl]-1-(3-fluoroazetidin-1-yl)ethanone]: the half-maximal inhibitory concentration (IC50) is 50.1 nM.

Turning to `Cc1c(F)ccc(-c2cnc3c(F)cn(CC(=O)N4CC(F)C4)c3c2)c1F` [Example 488, 2-[6-(2,4-Difluoro-3-methyl-phenyl)-3-fluoro-pyrrolo[3,2-b]pyridin-1-yl]-1-(3-fluoroazetidin-1-yl)ethanone], the half-maximal inhibitory concentration (IC50) is 15.8 nM.

In the case of `O=C(Cn1cc(F)c2ncc(-c3cccc(Cl)c3)cc21)N1CC(F)C1` [Example 489, 2-[6-(3-Chlorophenyl)-3-fluoro-pyrrolo[3,2-b]pyridin-1-yl]-1-(3-fluoroazetidin-1-yl)ethanone], the negative-log IC50 (pIC50) was 8.0.

In the case of `O=C(Cn1cc(F)c2ncc(-c3cccc(Cl)c3F)cc21)N1CC(F)C1` [Example 490, 2-[6-(3-Chloro-2-fluoro-phenyl)-3-fluoro-pyrrolo[3,2-b]pyridin-1-yl]-1-(3-fluoroazetidin-1-yl)ethanone], the IC50 was 20 nM.

For `CCc1cccc(-c2cnc3c(F)cn(CC(=O)N4CC(F)C4)c3c2)c1` [Example 491, 2-[6-(3-Ethylphenyl)-3-fluoro-pyrrolo[3,2-b]pyridin-1-yl]-1-(3-fluoroazetidin-1-yl)ethanone], the IC50 is 15.8 nM.

Take `O=C(Cn1cc(F)c2ncc(-c3cccc(F)c3)cc21)N1CC(F)C1` [Example 492, 1-(3-Fluoroazetidin-1-yl)-2-[3-fluoro-6-(3-fluorophenyl)pyrrolo[3,2-b]pyridin-1-yl]ethanone]: the IC50 was 25.1 nM.

As to `CN(C)C(=O)Cn1cc(F)c2ncc(-c3ccccc3F)cc21` [Example 493, 2-[3-Fluoro-6-(2-fluorophenyl)pyrrolo[3,2-b]pyridin-1-yl]-N,N-dimethyl-acetamide], the IC50 was 25.1 nM.

`Cc1cccc(-c2cnc3c(F)cn(CC(=O)N(C)C)c3c2)c1F` [Example 494, 2-[3-Fluoro-6-(2-fluoro-3-methyl-phenyl)pyrrolo[3,2-b]pyridin-1-yl]-N,N-dimethyl-acetamide]: the IC50 was 316 nM.

Turning to `CN(C)C(=O)Cn1cc(F)c2ncc(-c3ccccc3)cc21` [Example 495, 2-(3-Fluoro-6-phenyl-pyrrolo[3,2-b]pyridin-1-yl)-N,N-dimethyl-acetamide], the IC50 is 12.6 nM.

With `Cc1cccc(-c2cnc3c(F)cn(CC(=O)N(C)C)c3c2)c1` [Example 496, 2-[3-Fluoro-6-(m-tolyl)pyrrolo[3,2-b]pyridin-1-yl]-N,N-dimethyl-acetamide], the half-maximal inhibitory concentration (IC50) was 79.4 nM.

Turning to `O=C(Cn1cc(F)c2ncc(-c3ccccc3)cc21)N1CCC1` [Example 497, 1-(Azetidin-1-yl)-2-(3-fluoro-6-phenyl-pyrrolo[3,2-b]pyridin-1-yl)ethanone], the IC50 is 31.6 nM.

For the compound `CCc1cccc(-c2cnc3c(F)cn(CC(=O)N4CCC4)c3c2)c1` [Example 498, 1-(Azetidin-1-yl)-2-[6-(3-ethylphenyl)-3-fluoro-pyrrolo[3,2-b]pyridin-1-yl]ethanone], the IC50 was 79.4 nM.

Turning to `CN(C)C(=O)Cn1cc(F)c2ncc(-c3cccc(C(F)(F)F)c3)cc21` [Example 499, 2-[3-Fluoro-6-[3-(trifluoromethyl)phenyl]pyrrolo[3,2-b]pyridin-1-yl]-N,N-dimethyl-acetamide], the IC50 is 25.1 nM.

Regarding `CN(C)C(=O)Cn1cc(F)c2ncc(-c3cccc(C(F)(F)F)c3F)cc21` [Example 500, 2-[3-Fluoro-6-[2-fluoro-3-(trifluoromethyl)phenyl]pyrrolo[3,2-b]pyridin-1-yl]-N,N-dimethyl-acetamide], the IC50 was 31.6 nM.

With `CN(C)C(=O)Cn1cc(F)c2ncc(-c3ccc(F)c(F)c3F)cc21` [Example 501, 2-[3-Fluoro-6-(2,3,4-trifluorophenyl)pyrrolo[3,2-b]pyridin-1-yl]-N,N-dimethyl-acetamide], the IC50 is 39.8 nM.

With `Cc1c(F)ccc(-c2cnc3c(F)cn(CC(=O)N(C)C)c3c2)c1F` [Example 502, 2-[6-(2,4-Difluoro-3-methyl-phenyl)-3-fluoro-pyrrolo[3,2-b]pyridin-1-yl]-N,N-dimethyl-acetamide], the IC50 was 39.8 nM.

`CN(C)C(=O)Cn1cc(F)c2ncc(-c3cccc(Cl)c3)cc21` [Example 503, 2-[6-(3-Chlorophenyl)-3-fluoro-pyrrolo[3,2-b]pyridin-1-yl]-N,N-dimethyl-acetamide]: the IC50 was 15.8 nM.

Turning to `CN(C)C(=O)Cn1cc(F)c2ncc(-c3ccc(F)c(Cl)c3)cc21` [Example 504, 2-[6-(3-Chloro-4-fluoro-phenyl)-3-fluoro-pyrrolo[3,2-b]pyridin-1-yl]-N,N-dimethyl-acetamide], the IC50 was 12.6 nM.

For `CCc1cccc(-c2cnc3c(F)cn(CC(=O)N(C)C)c3c2)c1` [Example 505, 2-[6-(3-Ethylphenyl)-3-fluoro-pyrrolo[3,2-b]pyridin-1-yl]-N,N-dimethyl-acetamide], the half-inhibitory concentration (IC50) is 20 nM.

Consider `O=C(Cn1cc(F)c2ncc(-c3cccc(F)c3)cc21)N1CCC1` [Example 506, 1-(Azetidin-1-yl)-2-[3-fluoro-6-(3-fluorophenyl)pyrrolo[3,2-b]pyridin-1-yl]ethanone], for which the IC50 is 15.8 nM.

Consider `O=C(Cn1cc(F)c2ncc(-c3ccccc3F)cc21)N1CC(F)C1` [Example 507, 1-(3-Fluoroazetidin-1-yl)-2-[3-fluoro-6-(2-fluorophenyl)pyrrolo[3,2-b]pyridin-1-yl]ethanone], for which the IC50 is 20 nM.

Regarding `O=C(Cn1cc(F)c2ncc(-c3ccc(F)c(C(F)(F)F)c3)cc21)N1CC(F)C1` [Example 508, 1-(3-Fluoroazetidin-1-yl)-2-[3-fluoro-6-[4-fluoro-3-(trifluoromethyl)phenyl]pyrrolo[3,2-b]pyridin-1-yl]ethanone], the concentration for half-maximal inhibition (IC50) is 126 nM.

Take `CN(C)C(=O)Cn1cc(F)c2ncc(-c3cc(F)cc(F)c3)cc21` [Example 509, 2-[6-(3,5-Difluorophenyl)-3-fluoro-pyrrolo[3,2-b]pyridin-1-yl]-N,N-dimethyl-acetamide]: the half-maximal inhibitory concentration (IC50) was 31.6 nM.

In the case of `CN(C)C(=O)Cn1cc(F)c2ncc(-c3cccc(F)c3)cc21` [Example 510, 2-[3-Fluoro-6-(3-fluorophenyl)pyrrolo[3,2-b]pyridin-1-yl]-N,N-dimethyl-acetamide], the IC50 was 39.8 nM.

Turning to `CN(C)C(=O)Cn1cc(Cl)c2ncc(-c3ccccc3F)cc21` [Example 512, 2-[3-Chloro-6-(2-fluorophenyl)pyrrolo[3,2-b]pyridin-1-yl]-N,N-dimethyl-acetamide], the IC50 was 316 nM.

Take `Cc1cccc(-c2cnc3c(Cl)cn(CC(=O)N(C)C)c3c2)c1F` [Example 513, 2-[3-Chloro-6-(2-fluoro-3-methyl-phenyl)pyrrolo[3,2-b]pyridin-1-yl]-N,N-dimethyl-acetamide]: the IC50 is 50.1 nM.

Turning to `CN(C)C(=O)Cn1cc(Cl)c2ncc(-c3ccccc3)cc21` [Example 514, 2-(3-Chloro-6-phenyl-pyrrolo[3,2-b]pyridin-1-yl)-N,N-dimethyl-acetamide], the IC50 is 126 nM.

With `Cc1cccc(-c2cnc3c(Cl)cn(CC(=O)N(C)C)c3c2)c1` [Example 515, 2-[3-Chloro-6-(m-tolyl)pyrrolo[3,2-b]pyridin-1-yl]-N,N-dimethyl-acetamide], the IC50 was 100 nM.
